Key:
[1] = Weight loss activity of cyclic dipeptides; details: in vivo
Text: As to the active ingredient, while the effect as to weight loss appears to be stereospecific, it is contemplated that alterations can be made to the compound to enhance the activities thereof contemplated to fall within the scope of the instant invention.

[2] = system: pancreatic or intestinal enzymes; experiment: Resistance to proteolytic digestion
[3] = cited from earlier work
[4] = Passage of the blood-brain barrier; assay type: in vivo; details: non-CNS administration
Procedure: Thus, it was determined in the development of the instant invention that cyclo (His-Pro), unlike the vast majority of biologics that are susceptible to degradation in the gastrointestinal tract, can be administered by those routes normally employed for drug administration, such as intramuscularly and intravenously, but also that cyclo (His-Pro) can be administered orally. […] Although not an absolute barrier of the passage of compounds into the brain, many compounds cross very slowly if at all to any effective extent.

[5] = Oral cyclo (His-Pro) in drinking water, weight gain in rodents
[6] = Intracerebroventricular administration / lateral ventricle infusion, appetite and weight gain; assay type: in vivo, rodents; details: administered IVT acutely
[7] = Intraperitoneal cyclo (His-Pro), inhibition of appetite in animals receiving liquid diets; assay type: in vivo; details: intraperitoneally, 20 mg/kg/day for 24 days
[8] = Stability in vivo and in drinking water
Text: While it is known that the pyroglutamic acid residue often confers stability on a peptide carrying the same at a terminus, such as TRH, the precursor of cyclo (His-Pro), the pyroglutamic acid residue is not present in cyclo His-Pro.
The carrier(s) must be "acceptable" in the sense of being compatible with other ingredients of the formulation and not deleterious to the recipient thereof. […] Formulations suitable for administration conveniently comprise sterile aqueous solutions of the active chemical, which may be conveniently prepared by mixing the active chemical with water, and after rendering said solution sterile it may be presented in sealed containers.

[9] = Oral administration to rats, appearance in plasma; details: administered orally to rats
[10] = oral in drinking water, versus control animals, P<0.02

Structure (SMILES)	weight loss activity [1]	resistance to proteolytic digestion [2]	duration of appetite reduction ([3]; after intracerebroventricular administration to rodents) [h]	duration of inhibition of weight gain ([3]; infused into the lateral ventricle) [weeks]	blood-brain barrier passage [4]	cause of weight loss (satiety versus illness) ([5]; experimental studies)	mean body weight reached by experimental animals ([5]; oral in drinking water, 1 or 2 mg/kg/day for 14 to 18 days, controls gained from a mean of 248 to 396 gms) [gms]	inhibition of weight gain [5, 10] [grams]	inhibition of weight gain (minus %) [5, 10] [%]	duration of action [6]	inhibition of appetite [7]	effectiveness after addition to water ([8]; added to water, such as drinking water from the tap)	enzymatic degradation in vivo ([8]; in vivo)	half-life ([8]; in vivo)	form appearing in plasma [9]
O=C1[C@@H]2CCCN2C(=O)[C@@H]2CCCN12 [cyclo (Pro-Pro)]	did not provide weight loss activity														
O=C(O)CCC1NC(=O)C(Cc2ccccc2)NC1=O (stereo not shown) [cyclo (Glu-Phe)]	did not provide weight loss activity														
O=C1N[C@@H](Cc2cnc[nH]2)C(=O)N2CCC[C@@H]12 [cyclo (His-Pro), L-histidyl-L-proline diketopiperazine]		uniquely resistant to proteolytic digestion	≤ 12	2	crosses the blood-brain barrier to achieve effective concentrations in a short period of time	due to induction of satiety, not of nausea, vomiting or illness	384	12	8.1	about 12 hours	can induce inhibition of appetite	retain effectiveness	resistant to enzymatic degradation in vivo	long half-life	completely unaltered biochemically

— patent US5418218A, “Histidyl-proline diketopiperazine (cyclo his-pro) a cns-active pharmacologic agent” (The University of Maryland at Baltimore, priority 1992, dated 1995)
